The results in this text go back to BindingDB's records for patent US20240316020 (Icagen, 2024).

The target in this assay is Potassium voltage-gated channel subfamily KQT member 2 (Homo sapiens, UniProt O43526). As to the kind of experiment: SyncroPatch 384 (Nanion) High Throughput Electrophysiology. The method, then:
Human Kv7.2, Kv7.4 or Kv7.5/7.3 channels were evaluated using a voltage protocol in which cells were voltage-clamped at a holding potential of -60 mV. Potassium currents were continuously activated with a series of three voltage steps to -30 mV for 3 seconds, 40 mV for 1 second and -90 mV for 4 seconds with 12 seconds between successive voltage sweeps. Potassium currents were measured from the -90 mV repolarizing step. Baseline current was assessed for 3.5 minutes prior to the addition of 5.6 uM zinc pyrithione (1 uM for Kv7.4). Kv7.2, Kv7.4 or Kv7.5/7.3 current in the presence of zinc pyrithione was acquired over five minutes to allow channels to reach steady state activity prior to addition of test agents. Channel activity was monitored for three minutes preceding the addition of 30 uM ML-213 (3 minutes) to achieve maximum activation.
(In general: In patch-clamp work, channel activity is measured electrically.)

One may read the EC50 as the concentration that produces a half-maximal response.

Sequence of Potassium voltage-gated channel subfamily KQT member 2 (O43526 whole entry): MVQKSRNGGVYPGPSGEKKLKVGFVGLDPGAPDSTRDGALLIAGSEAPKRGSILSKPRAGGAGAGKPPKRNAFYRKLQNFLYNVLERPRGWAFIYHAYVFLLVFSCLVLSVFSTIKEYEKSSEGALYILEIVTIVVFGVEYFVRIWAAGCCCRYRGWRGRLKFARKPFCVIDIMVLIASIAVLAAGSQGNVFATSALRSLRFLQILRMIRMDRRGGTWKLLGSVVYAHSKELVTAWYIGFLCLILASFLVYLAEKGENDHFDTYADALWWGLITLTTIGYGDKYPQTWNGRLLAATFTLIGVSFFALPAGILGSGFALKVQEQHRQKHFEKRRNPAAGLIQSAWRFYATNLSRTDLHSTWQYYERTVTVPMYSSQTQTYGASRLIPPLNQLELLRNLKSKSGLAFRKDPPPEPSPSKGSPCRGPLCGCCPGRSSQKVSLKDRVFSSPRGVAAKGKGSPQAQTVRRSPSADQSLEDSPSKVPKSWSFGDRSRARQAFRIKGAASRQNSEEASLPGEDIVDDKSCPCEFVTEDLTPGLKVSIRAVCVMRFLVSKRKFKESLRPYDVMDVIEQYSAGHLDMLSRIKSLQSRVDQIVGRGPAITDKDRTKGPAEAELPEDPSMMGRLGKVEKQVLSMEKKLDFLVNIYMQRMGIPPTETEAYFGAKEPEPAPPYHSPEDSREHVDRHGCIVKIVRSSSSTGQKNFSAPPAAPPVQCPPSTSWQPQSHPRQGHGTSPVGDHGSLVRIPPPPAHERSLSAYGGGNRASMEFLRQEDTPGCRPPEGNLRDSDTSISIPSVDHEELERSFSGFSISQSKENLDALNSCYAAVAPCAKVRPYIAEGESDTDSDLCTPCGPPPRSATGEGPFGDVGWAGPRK

For `O=C(NCc1ccnc(-n2cccn2)c1)NC1COC2(CCCC2)C1` (stereo unspecified) [US20240316020, Example 1], a half-maximal effect (EC50) was put at 3.63 µM.
